Earlier results, collected in patent US8969412B2, “Use for a composition comprising chloroprocaine HCL, a new composition comprising chloroprocaine HCL and a method for its manufacture” (Sintetica S.A., priority 2005, dated 2015).

Experiments:
[1] = in vivo
[2] = intrathecal application
[3] = intrathecal anaesthesia

CCN(CC)CCOC(=O)c1ccc(N)cc1Cl [Chloroprocaine, 2-(diethylaminoethyl)-4-amino-chlorobenzoate]
systemic toxicity [1]: very low systemic toxicity

CCN(CC)CC(=O)Nc1c(C)cccc1C [lidocaine]
transient neurologic syndrome (TNS) [2]: associated with symptoms of so-called transient neurologic syndrome (TNS)

CCN(CC)CCOC(=O)c1ccc(N)cc1 [procaine]
inadequacy rate [3]: 17%
